Measured values reported in patent publication US6479487B1, “6, 9-disubstituted 2-[trans-(4-aminocyclohexyl)amino] purines” (Aventis Pharmaceuticals Inc., priority 1998, dated 2002).
Several values for one entry are separate records, joined by “and”; a condition that tells them apart may be missing. Equal entries are not always repeated. Structures can show the parent of a compound that is named as a salt. Where two headings read alike, the source gives them in different places.

Legend:
[1] = test system: MDA-MB-435; experiment: In vitro tumor cell proliferation, MDA-MB-435; assay type: cell-based; details: values given with an undefined *, read-out: In vitro Tumor Cell Proliferation (IC50, μM) Breast MDA-MB-435
Outline: (§1)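 Two read-outs were used: sulforhodamine B after 3 + 4 days of drug with re-dosing at medium change, or CyQUANT after 3 days of drug and freezing of plates at −80° C for at least 30 minutes.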

[2] = target: T1, cdk4/cyclin D1 (Homo sapiens, UniProt P11802); experiment: Cyclin-dependent Kinase 4 Assay (cdk4/cyclin D1, GST-Rb substrate); assay type: biochemical; details: cdk4/cyclin D1 insect cell lysate, 10 μM ATP, 30 min at 37° C., several values = separate determinations, read-out: CDK4 Inhibition IC50
T1 construct: made in house; host or cells: Sf9 insect cells (Bac-to-Bac baculovirus, pFastBac)
T1 sequence (P11802 whole entry): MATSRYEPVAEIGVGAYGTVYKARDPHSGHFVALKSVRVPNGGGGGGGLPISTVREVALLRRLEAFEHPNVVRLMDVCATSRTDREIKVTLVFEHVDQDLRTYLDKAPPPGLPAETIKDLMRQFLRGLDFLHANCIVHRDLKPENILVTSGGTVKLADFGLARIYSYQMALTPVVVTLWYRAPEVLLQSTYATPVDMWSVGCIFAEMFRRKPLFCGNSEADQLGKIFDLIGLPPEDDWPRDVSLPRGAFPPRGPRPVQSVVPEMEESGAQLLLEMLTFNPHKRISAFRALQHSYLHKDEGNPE
T1 sequence (P24385 whole entry partner): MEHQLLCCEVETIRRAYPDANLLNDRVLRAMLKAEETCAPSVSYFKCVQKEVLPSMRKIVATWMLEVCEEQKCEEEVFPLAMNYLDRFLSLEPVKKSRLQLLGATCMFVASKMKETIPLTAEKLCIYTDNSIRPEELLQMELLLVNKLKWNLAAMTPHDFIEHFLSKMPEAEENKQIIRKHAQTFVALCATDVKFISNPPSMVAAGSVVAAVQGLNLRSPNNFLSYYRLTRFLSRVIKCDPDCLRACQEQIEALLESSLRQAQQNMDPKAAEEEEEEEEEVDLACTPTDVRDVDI
Outline: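 Insect-cell lysate of coexpressed cdk4/cyclin D1 (0.1 μg) acts on GST-Rb (0.5 μg) bound to glutathione-Sepharose, in 50 mM HEPES pH 7.5, 10 mM MgCl2, 1 mM EGTA. Reaction runs 30 min at 37 °C, then is stopped by filtration and TNEN washes. Rb phosphorylation read by scintillation counting; IC50 derived.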

[3] = test system: DU145; experiment: In vitro tumor cell proliferation, DU145; assay type: cell-based, human; details: many values given with an undefined *, read-out: In vitro Tumor Cell Proliferation (IC50, μM) Prostate DU145
Outline: as §1

[4] = test system: HT-29; experiment: In vitro tumor cell proliferation, HT-29; assay type: cell-based, human; details: many values given with an undefined *, read-out: In vitro Tumor Cell Proliferation (IC50, μM) Colon HT-29
Outline: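 HT-29 cells seeded overnight at 37° C, then exposed to drug for 3 days, refed with fresh drug-containing medium for 4 more days. Proliferation read by sulforhodamine B staining after TCA fixation; alternatively by CyQUANT after freezing plates at −80° C following 3 days' drug exposure.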

[5] = test system: Colo-205; experiment: In vitro tumor cell proliferation, Colo-205; assay type: cell-based; details: values given with an undefined *, read-out: In vitro Tumor Cell Proliferation (IC50, μM) Colon Colo-205
Outline: as §1

[6] = test system: MDA-MB-231; experiment: In vitro tumor cell proliferation, MDA-MB-231; assay type: cell-based, human; details: sulforhodamine B or CyQUANT assay, many values given with an undefined *, read-out: In vitro Tumor Cell Proliferation (IC50, μM) Breast MDA-MB-231
Outline: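 Cells plated overnight at 37 °C, then exposed to drug for 3 days, refed with fresh drug and incubated 4 more days. Read-out by sulforhodamine B staining after TCA fixation; alternatively, CyQUANT after 3-day drug exposure and freezing at −80 °C.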

[7] = test system: DMS-114; experiment: In vitro tumor cell proliferation, DMS-114; assay type: cell-based, human; details: many values given with an undefined *, read-out: In vitro Tumor Cell Proliferation (IC50, μM) Lung DMS-114
Outline: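 Human small cell lung carcinoma DMS-114 cells plated overnight, then drug-treated for 3 days, medium and drug renewed, and incubated 4 more days. Growth read by sulforhodamine B staining after TCA fixation; alternatively by CyQUANT after 3 days' drug exposure and freezing at −80 °C.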

[8] = test system: PC-3; experiment: In vitro tumor cell proliferation, PC-3; assay type: cell-based, human; details: many values given with an undefined *, read-out: In vitro Tumor Cell Proliferation (IC50, μM) Prostate PC-3
Outline: as §1

[9] = test system: A549; experiment: In vitro tumor cell proliferation, A549; assay type: cell-based, human; details: many values given with an undefined *, read-out: In vitro Tumor Cell Proliferation (IC50, μM) Lung A549
Outline: as §1

[10] = target: T2, cdk2/cyclin E (Homo sapiens, UniProt P24941); experiment: Cyclin-Dependent Kinase 2 Assay (cdk2/cyclin E, GST-Rb substrate); assay type: biochemical; details: recombinant cdk2/cyclin E, 10 μM ATP, 30 min at 30° C., several values in a cell = separate determinations, read-out: CDK-2 Inhibition IC50
T2 construct: made in house; host or cells: insect cells (baculovirus co-infection)
Experimental: Substrate: GST-Rb as described above for cdk4/cyclin D1
Assay conditions for cdk2/cyclin E were identical to those for cdk4/cyclin D1 including the substrate. The concentration of recombinant cdk2/cyclin E in the assay was 0.1 μg per 100 μl assay. Incubation was for 30 min at 30° C.

[11] = Homo sapiens, MDA-MB-435, MDA-MB-435
[12] = Homo sapiens, COLO 205, Colo-205
[13] = Homo sapiens, MDA-MB-231, MDA-MB-231

Compound	IC50 [1, 11] [µM]	IC50 ([1]; MDA-MB-435, trihydrochloride) [µM]	IC50 [2]	IC50 ([3]; DU145, trihydrochloride) [µM]	IC50 ([3]; Homo sapiens, DU-145, DU145) [µM]	IC50 ([4]; HT-29, trihydrochloride) [µM]	IC50 ([4]; Homo sapiens, HT-29, HT-29) [µM]	IC50 ([5]; Colo-205, trihydrochloride) [µM]	IC50 [5, 12] [µM]	IC50 [6, 13] [µM]	IC50 ([6]; MDA-MB-231, trihydrochloride) [µM]	IC50 ([7]; DMS-114, trihydrochloride) [µM]	IC50 ([7]; Homo sapiens, DMS-114, DMS-114) [µM]	IC50 ([8]; Homo sapiens, PC-3, PC-3) [µM]	IC50 ([8]; PC-3, trihydrochloride) [µM]	IC50 ([9]; A549, trihydrochloride) [µM]	IC50 ([9]; Homo sapiens, A549, A549) [µM]	IC50 [10]	also measured
N[C@H]1CC[C@H](Nc2nc(NC3CCN(Cc4c(F)cccc4F)CC3)c3ncn(C4CCCC4)c3n2)CC1 [Example 147-v, 2-[Trans-(4-aminocyclohexyl)amino]-6-[4-[1-(2,6-difluorobenzyl)]piperidinylamino]-9-cyclopentylpurine trihydrochloride]	1	1.3	2000 nM and 3400 nM	0.57	0.52	0.83	0.76	0.77	0.58	0.63	1.2	1.1	1.9	0.85	1.1	0.63	0.5	240 nM	–
N[C@H]1CC[C@H](Nc2nc(NC3CCN(Cc4ccc(Cl)c(Cl)c4)CC3)c3ncn(C4CCCC4)c3n2)CC1 [Example 147-o, 2-[Trans-(4-aminocyclohexyl)amino]-6-[4-[1-(3,4-dichlorobenzyl)]piperidinylamino]-9-cyclopentylpurine trihydrochloride]	0.92	1.1	1800 nM	0.69	0.76	0.77	0.83	0.45	0.63	0.77	0.9	0.71	0.78	0.64	0.92	0.44	0.42	200 nM and 160 nM	–
N[C@H]1CC[C@H](Nc2nc(NC3CCN(Cc4cccc(Cl)c4)CC3)c3ncn(C4CCCC4)c3n2)CC1 [Example 42, 2-[Trans-(4-aminocyclohexyl)amino]-6-[4-(1-(3-chlorobenzyl))piperidinylamino]-9-cyclopentylpurine]	0.37	–	1000 nM and 1200 nM and 2000 nM	–	0.22	–	0.25	–	0.19	0.24	–	–	0.27	0.21	–	–	0.16	200 nM and 150 nM	IC50 ([1]; MDA-MB-435): 0.44 µM; IC50 ([3]; DU145): 0.23 µM; IC50 ([4]; HT-29): 0.28 µM; IC50 ([6]; MDA-MB-231): 0.3 µM; IC50 ([7]; DMS-114): 0.2 µM; IC50 ([8]; PC-3): 0.34 µM; IC50 ([9]; A549): 0.14 µM
N[C@H]1CC[C@H](Nc2nc(NC3CCN(Cc4ccccc4C(F)(F)F)CC3)c3ncn(C4CCCC4)c3n2)CC1 [Example 147-b, 2-[Trans-(4-aminocyclohexyl)amino]-6-[4-[1-(2-trifluoromethylbenzyl)]piperidinylamino]-9-cyclopentylpurine trihydrochloride]	0.99	0.95	2400 nM and 4500 nM	0.61	0.46	0.61	0.65	0.62	0.48	0.64	0.73	0.82	0.92	0.63	0.78	0.4	0.42	1200 nM and 920 nM	–
CCN(CC)CCNc1nc(N[C@H]2CC[C@H](N)CC2)nc2c1ncn2C1CCCC1 [Example 6, 2-[Trans-(4-aminocyclohexyl)amino]-6-[2-(diethylamino)ethylamino]-9-cyclopentylpurine trihydrochloride]	–	11	300 nM and 700 nM	7.9	7.8	7.7	–	4.7	5.4	6.2	6.4	9.6	6.3	6.4	8.2	–	7.2	690 nM	–
N[C@H]1CC[C@H](Nc2nc(NC3CCN(Cc4ccc(F)cc4)CC3)c3ncn(C4CCCC4)c3n2)CC1 [Example 147-l, 2-[Trans-(4-aminocyclohexyl)amino]-6-[4-[1-(4-fluorobenzyl)]piperidinylamino]-9-cyclopentylpurine trihydrochloride]	0.46	–	2000 nM and 2700 nM and 1300 nM	0.29	0.3	0.4	0.37	0.19	0.26	0.33	0.29	0.43	0.48	–	0.41	0.19	0.26	260 nM and 170 nM and 280 nM	–
